How the values were obtained:
[1] = tested on: cocaine-dependent individuals; assay: self-rated subjective responses after intravenous cortisol, cocaine and saline in cocaine dependence; type: in vivo, human
Procedure: To assess cocaine/stress cross-sensitization, 12 cocaine-dependent individuals (age: 39.8±3.5 years) were administered cortisol (0.2 and 0.5 mg/kg), along with cocaine (0.2 mg/kg) and saline via intravenous boluses, in a double-blind, counterbalanced fashion. The individualized description of subjective responses were categorized into four components: craving, high, rush, and low, which were self-rated on a computerized continuous scale of 0 (none) to 3 (extreme) each minute for two minutes prior and 20 minutes following each infusion. Cocaine craving was proactively defined with the subject, clinically as an urge to use the drug and operationally in terms of the action the individual wanted to engage in to get cocaine. The ratings for high (well-being, self-confidence, and sociability), rush (perception of elevated heart rate and sweating, along with sensations of ‘speeding’), and low (dysphoric affect distinct from the high experience diminishment) were subjectively defined and not necessarily associated with a behavioral response or with the planning of physical activity. […] Cocaine elevated measures of craving (p<0.001); high (p<0.02); rush (p<10-4); and low (p=0.05). Saline produced no significant ratings changes.

[2] = tested on: NAc and other stress-associated regions; assay: monetary reward task with fMRI in PG subjects given yohimbine; type: in vivo, human; conditions: vs PG subjects given saline and normal controls
Procedure: During the gambling paradigm, subjects participated in a game of chance where they actually won or lost money while in the fMRI scanner. Signal changes that anticipate or accompany monetary gains and losses under varying conditions of controlled expectation were evaluated. Specifically, evaluated were: a) an “expectancy phase”, when a promising or unpromising roulette-like spinner (FIG. 4) is presented and b) an “outcome phase” when the arrow lands on one sector of that spinner, and thereby alters the subjects' winnings. It is known that, when applied to healthy controls, this task differentiates the fMRI time courses in the NAc, mPFC and SLEA and in related regions during expectancy vs. outcome phases.
At the start of the game, each subject was given an endowment of $50 and was told that (s)he might lose some or all of this stake, retain it or increase it. Each trial consisted of a “prospect phase”, when a spinner was presented and an “outcome phase” when a sector of the spinner was selected by the arrow and a corresponding amount was added to or subtracted from the subjects' winnings. […] The display was static for the first 0.5 second and then a superimposed arrow began to rotate. […] Only results of the last 18 trials were scored for each run since the initial trial was inserted into the run sequence purely to maintain counterbalancing. […]

[3] = Guthrie et al, 1990; cited from earlier work
[4] = tested on: healthy subjects and neuropsychiatric patients; conditions: cited from earlier work
[5] = tested on: α2 adrenoceptor; conditions: cited from earlier work; for effect on yohimbine's effects: α2 agonists, Ghitza et al, 2005, Le et al, Lee et al, 2004
[6] = tested on: reward circuitry; assay: cardiac gated fMRI BOLD imaging during cocaine infusion; type: in vivo, human; conditions: cocaine HCl 0.6 mg/kg infusion (max 40 mg), vs pre-infusion baseline, count out of 7 cocaine-dependent subjects
Description: We imaged reward circuitry in humans during cocaine infusion, using cardiac gated fMRI BOLD imaging to compensate for brainstem motion. We further used a clustered volume acquisition with sharpened slice profiles to cluster the acquisition of the brainstem volume and thus reduce the effects of imaging noise on cocaine-induced euphoria and craving. Eleven right-handed men (34±7 years old) with the DSM-IV diagnosis of cocaine dependence were studied. During imaging, subjects underwent a randomized double-blind infusion of either cocaine HCl (0.6 mg/kg up to maximum dose of 40 mg) or saline. Subjects were scanned on an Instascan device (1.5 T General Electric Signa; modified by Advanced NMR Systems, Wilmington, Mass.) using a head coil (General Electric). […] Automated shimming with second order shims was performed to improve Bo field homogeneity. Functional scans utilized cardiac gating with an asymmetric spin echo, T2*-weighted CVA (TR=6 RR, three slices per each of the first two RRs; TE=70; offset=−25 ms; 128×64 matrix; thickness=3.12×3.12 mm, through-plane resolution=7 mm; 200 images/slice). […] Seven matched sets of cocaine and saline infusion scans were interpretable after motion-correction. Statistical maps were constructed using Kolmogorov-Smirnov (KS) statistics and thresholded at the corrected p value for brain regions sampled, p<10-5. […]

[7] = tested on: reward circuitry; assay: fMRI with cardiac gating during low-dose morphine infusions
Procedure: Normal human reward circuitry was studied during low-dose morphine infusions using fMRI with cardiac gating in an unblinded study. […] Morphine and saline infusions were counter-balanced across subjects, and segregated in separate scan sessions 7 days apart. Four 2 mL infusions were given over 8 minutes, with each infusion lasting 20 seconds. The onset of each infusion was separated by a 2-minute interval. The total morphine dose divided evenly over the 4 infusions was 4 mg/70 kg. Respiratory rate, heart rate, O2 saturation, and end-tidal carbon dioxide concentration in the expired air (ETCO2) were monitored during the experiment in each individual for safety. Subjects were asked to rate their subjective high on a 10-point hedonic rating scale (0=no high; 10=max. high imaginable).

[8] = morphine 4 mg/70 kg total, 5 subjects

With C[C@]12CCC(=O)C=C1CC[C@@H]1[C@@H]2[C@@H](O)C[C@@]2(C)[C@H]1CC[C@]2(O)C(=O)CO [cortisol] the “craving self-rating, time effect” value ([1]; cortisol 0.2 and 0.5 mg/kg iv bolus, F=3.11, p<0.001) was “significant increases in craving” and the “craving self-rating, dose effect” value ([1]; cortisol 0.2 vs 0.5 mg/kg iv, F=0.06, p=0.81) was “no dose effect”.
For COC(=O)[C@@H]1[C@H]2C[C@H]3c4[nH]c5ccccc5c4CCN3C[C@@H]2CC[C@@H]1O [yohimbine], the “brain activity in the NAc and other stress-associated regions” value [2] is listed as “significantly elevated levels of brain activity”, the half-life [3] is listed as “about 45 minutes” and the tolerability ([4]; yohimbine 0.125 mg/kg to 0.4 mg/kg intravenous) is listed as “generally well tolerated”. The “reported adverse effects in clinical trials” value ([4]; yohimbine clinical trials) was “elevated blood pressure and heart rate, psychomotor agitation, irritability, tremor, headaches, skin flushing, dizziness, urinary frequency, nausea, vomiting and perspiration” and the “PET brain activity in PTSD subjects” value ([4]; yohimbine infusions 0.4 mg/kg, ten PTSD subjects vs matched healthy controls, associated with increased anxiety self-reports) was “deactivations in prefrontal, temporal, parietal, and orbitofrontal cortexes”.
In the case of CCS(=O)(=O)N1CCC[C@@H]2CN3CCc4cc(OC)ccc4[C@@H]3C[C@@H]21.Cl [RS-79948-197], the “reproduction of yohimbine's effects” value ([5]; selective α2 adrenoceptor antagonist, literature) is listed as “replication of these effects”.
For Clc1cccc(Cl)c1N=C1NCCN1 [clonidine], the “effect on yohimbine's effects” value [5] is listed as “blockade of yohimbine's effects”.
For CC(Oc1c(Cl)cccc1Cl)C1=NCCN1 (stereo not shown) [lofexidine], the “effect on yohimbine's effects” value [5] is given as “blockade of yohimbine's effects”.
For COC(=O)[C@H]1[C@@H](OC(=O)c2ccccc2)C[C@@H]2CC[C@H]1N2C [cocaine], the “subjects with focal positive fMRI signal changes in the right NAc, amygdala, and mPFC” value [6] was at least 5.
With CN1CC[C@]23c4c5ccc(O)c4O[C@H]2[C@@H](O)C=C[C@H]3[C@H]1C5 [morphine] the adverse side-effects ([7]; morphine 4 mg/70 kg total over 4 infusions, drug naive male subjects) was “No adverse side-effects”, the “fMRI activation in bilateral NAc and mPFC” value [7, 8] was “significant focal activations” and the “fMRI activation in the amygdala” value [7, 8] was “subthreshold activation”. For the same molecule, the “subjective state (hedonic rating)” value ([7]; morphine 4 mg/70 kg total, data not shown) was “mild euphoria” and the “fMRI activation in the VT” value ([7]; morphine 4 mg/70 kg total, with cardiac gating) was “left VT activation”.

From patent US20110046120A1, “TREATMENT OF IMPULSE CONTROL DISORDERS” (Mclean Hospital Corporation, priority 2006, published 2011)
